In patent US4610987A, “Imidazoquinazolin-2-one compounds” (Daiichi Seiyaku Co., Ltd., priority 1983, dated 1986):
Converted amounts (≈) assume the structure as drawn. Like-named read-outs stand apart in the source and are kept apart here.

Columns and labels:
[1] = tested on: platelet aggregation (rat platelet-rich-plasma); assay: Test of Platelet Aggregation Inhibition (in vitro), rat PRP; type: cell-based, Wistar Imamichi rat; conditions: for IC50: Platelet, in vitro, rat blood
Experimental: (§1) The test was performed as follows in accordance with the method of Ashida et al, Thrombosis and Haemostasis, Vol. 40, 542 (1979).
(§2) Blood was taken by puncture from the heart of a Wistar Imamichi rat under anesthesia with pentobarbital into a syringe containing 1/10 volume of a 3.13% aqueous solution of sodium citrate dihydrate, and the citrated blood was centrifuged to obtain a platelet-rich-plasma (PRP). In the same manner, citrated blood was collected from the vein of a healthy human who had not taken aspirin or any other anti-inflammatory agent since before 10 days, followed by centrifugation to obtain PRP. 5 μl of each test compound was added to 0.445 ml of each of these PRP samples, and the system was warmed at 30° C. for 1 minute. 50 μl of an aggregation inducer (ADP or collagen) was then added thereto, and platelet aggregation was determined according to the method of Born, Nature, Vol. 194, 927 (1962).

platelet aggregation [2] = assay: Test of Platelet Aggregation Inhibition (ex vivo, p.o.); type: in vivo, Wistar Imamichi rat; conditions: for inhibition at 10 mg/kg: Platelet, po, ex vivo, rat, 10 mg/Kg p.o., 1 hour, *P<0.05, **P<0.01, ***P<0.001; for aggregation inhibitory activity in ADP- or collagen-induced aggregation (in words): orally administered, Table 2
Experimental: One hour later, citrated blood was taken from the heart, and platelet aggregation was determined in the same manner as described in the in vitro test. The inhibitory activity was compared with that of control and expressed in terms of percent inhibition.

[3] = Solubility Test (water-solubility)
circulatory system = assay: Test of Influence on Circulatory System (blood pressure, heart beats); type: in vivo, SLC-Wistar rat; conditions: rat, 50 mg/Kg p.o.
Experimental: 5 or 6 male normal SLC-Wistar rats per group (body weight: 205-255 g) orally received 50 mg/Kg of the test compound, and the blood pressure (tail cuff method) and the heart beats were measured with the passage of time in order to elucidate influences of the test compound on the circulatory system.

[4] = tested on: platelet aggregation (human platelet-rich-plasma); assay: Test of Platelet Aggregation Inhibition (in vitro), human PRP; type: cell-based; conditions: human blood, ADP-induced
Experimental: as §1, §2

human heart PDE I = assay: Inhibitory activity on phosphodiesterase, heart PDE I (cGMP); type: biochemical; conditions: cGMP substrate
Experimental: (§3) Phosphodiesterase fractions were separated from 105,000×g of supernatant fractions from human platelets and heart by DEAE-cellulose column chromatography using the method of Timothy et al. (Arch. Biochem. Biophy. 196, 465-474, 1979) with minor modifications. These fractions were designated PDE I, PDE II and PDE III, depending upon the order of their emergence from the DEAE-cellulose column.
(§4) Phosphodiesterase activity was measured by the method of Thompson and Appleman (Biochemistry 10, 311-316, 1971) with slight modifications. The reaction mixture consisted of 25 mM of Tris-HCl (pH 7.4), 5 mM of MgCl2, 1 μM of [^3 H]-cAMP or cGMP (approximate 20,000 cpm), various concentrations of a test compound and the enzyme preparation. After incubation for 10 minutes at 30° C., the reaction was terminated by boiling the reaction mixture for 45 seconds. 5'-[^3 H]-AMP or GMP formed by phosphodiesterase was converted to [^3 H]adenosine or [^3 H]quanosine by snake venom (Botherop Atrox) containing 5'-nucleotidase and the product isolated by a cation exchange resin was counted in a liquid scintillation counter.

human platelet PDE I = human platelet PDE I (Homo sapiens, UniProt O76074); assay: Inhibitory activity on phosphodiesterase, platelet PDE I (cGMP); type: biochemical; conditions: cGMP substrate
Experimental: as §3, §4

human heart PDE III = assay: Inhibitory activity on phosphodiesterase, heart PDE III (cAMP); type: biochemical; conditions: for IC50: cAMP substrate
Experimental: as §3, §4

human platelet PDE II = assay: Inhibitory activity on phosphodiesterase, platelet PDE II (cGMP); type: biochemical; conditions: cGMP substrate
Experimental: as §3, §4

[5] = tested on: platelet aggregation induced by Lewis lung cancer (3LL) cells; assay: Inhibition on Platelet Aggregation Induced by Cancer Cells (in vitro), 3LL; type: cell-based, C57BL/6 mouse; parameters: key: +: Aggregation was observed.; ±: Aggregation was partially inhibited.; -: No aggregation was observed
Experimental: (§5) It is known nowadays that platelet aggregation plays an important role in metastasis of cancers. […] Tanaka et al. The effect of the compounds of this invention to inhibit the above-described cancer cell-induced platelet aggregation was tested as follows. Cell suspensions of B16 or 3LL were prepared according to the method of Tanaka et al, Invarsion and Metastasis, Vol. 2, 289 (1982). […] Platelet aggregation of the sample system was determined according to the method of Born, and the platelet aggregation inhibitory activity was expressed by the following scale: […]

human platelet PDE III = human platelet PDE III (Homo sapiens, UniProt Q14432); assay: biochemical; conditions: for IC50: cAMP substrate
Experimental: as §3, §4

[6] = tested on: platelet aggregation induced by B16 melanoma cells; assay: Inhibition on Platelet Aggregation Induced by Cancer Cells (in vitro), B16; type: cell-based, C57BL/6 mouse; parameters: key: +: Aggregation was observed.; ±: Aggregation was partially inhibited.; -: No aggregation was observed
Experimental: as §5

platelet aggregation [7] = assay: Test of Platelet Aggregation Inhibition (ex vivo; i.v.); type: in vivo, Wistar Imamichi rat; conditions: iv, 0.25 h, rat, i.v. 67 μg/Kg/min, 15 min
Experimental: As test animals, 5 to 6 Wistar Imamichi rats (body weight: about 260 g) that had been allowed food and water ad libitum were used per group. The test compound was dissolved in a physiological saline solution and continuously injected over a period of 10 or 15 minutes to the rats under anesthesia with pentobarbital through the femoral vein. Immediately after completion of the administration, citrated blood was collected from the heart, and platelet aggregation was determined in the same manner as in the test in vitro in Test Example 2.

[8] = ADP-induced, read-out: IC50, platelet aggregation inhibition in vitro, ADP
[9] = collagen-induced, read-out: IC50, platelet aggregation inhibition in vitro, Collagen
[10] = ADP, read-out: ex vivo % inhibition of platelet aggregation, ADP
[11] = collagen, read-out: ex vivo % inhibition of platelet aggregation, Collagen

Sequence of human platelet PDE III (Q14432 whole entry): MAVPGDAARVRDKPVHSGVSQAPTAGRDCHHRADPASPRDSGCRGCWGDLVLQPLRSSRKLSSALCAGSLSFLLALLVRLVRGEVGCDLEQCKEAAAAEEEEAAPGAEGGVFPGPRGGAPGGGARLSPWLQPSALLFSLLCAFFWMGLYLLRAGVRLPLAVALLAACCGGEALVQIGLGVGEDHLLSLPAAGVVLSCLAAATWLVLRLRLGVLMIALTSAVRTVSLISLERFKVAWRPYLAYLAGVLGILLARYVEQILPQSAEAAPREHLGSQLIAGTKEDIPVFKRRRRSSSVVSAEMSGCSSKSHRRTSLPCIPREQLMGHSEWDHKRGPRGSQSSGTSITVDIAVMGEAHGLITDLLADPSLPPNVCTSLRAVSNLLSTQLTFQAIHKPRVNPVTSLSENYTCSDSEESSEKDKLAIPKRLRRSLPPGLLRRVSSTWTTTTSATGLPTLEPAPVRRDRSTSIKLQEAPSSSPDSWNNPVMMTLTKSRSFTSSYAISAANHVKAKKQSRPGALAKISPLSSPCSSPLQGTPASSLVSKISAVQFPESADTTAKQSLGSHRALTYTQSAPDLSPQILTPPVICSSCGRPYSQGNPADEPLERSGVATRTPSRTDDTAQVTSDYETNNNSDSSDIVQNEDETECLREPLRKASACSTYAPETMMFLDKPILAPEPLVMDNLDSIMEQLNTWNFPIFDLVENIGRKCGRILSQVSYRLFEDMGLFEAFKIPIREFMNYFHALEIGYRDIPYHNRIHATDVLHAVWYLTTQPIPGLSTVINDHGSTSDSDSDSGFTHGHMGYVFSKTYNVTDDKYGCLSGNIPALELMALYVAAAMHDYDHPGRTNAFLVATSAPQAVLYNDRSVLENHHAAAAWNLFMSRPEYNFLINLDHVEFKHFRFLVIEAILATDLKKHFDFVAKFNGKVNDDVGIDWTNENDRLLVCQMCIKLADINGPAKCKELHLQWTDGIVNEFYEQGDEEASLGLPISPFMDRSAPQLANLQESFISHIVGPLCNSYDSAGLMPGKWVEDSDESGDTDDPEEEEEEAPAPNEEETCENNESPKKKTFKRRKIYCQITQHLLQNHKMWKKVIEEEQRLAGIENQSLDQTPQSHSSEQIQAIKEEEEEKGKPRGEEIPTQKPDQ

SMILES	IC50 [1, 8]	IC50 [1, 9]	inhibition at 10 mg/kg (platelet aggregation [2]; [10])	inhibition at 10 mg/kg (platelet aggregation [2]; [11])	solubility ([3]; tap water, pH 2)	solubility ([3]; water, pH 4, water)	Increase in Heart Beat (circulatory system; 1 hr, **P<0.01)	Reduction in Blood Pressure (circulatory system; 1 hr, *P<0.05, **P<0.01)	Increase in Heart Beat (circulatory system; 2 hr, **P<0.01)	Reduction in Blood Pressure (circulatory system; 2 hr, *P<0.05, **P<0.01)	Increase in Heart Beat (circulatory system; 3 hr, **P<0.01)	Reduction in Blood Pressure (circulatory system; 3 hr, **P<0.01)	Increase in Heart Beat (circulatory system; 5 hr, **P<0.01)	Reduction in Blood Pressure (circulatory system; 5 hr, **P<0.01)	Increase in Heart Beat (circulatory system; 6 hr, *P<0.05, **P<0.01)	Reduction in Blood Pressure (circulatory system; 6 hr, *P<0.05, **P<0.01)	IC50 [4]	IC50 (human heart PDE I)	IC50 (human platelet PDE I)	IC50 (human heart PDE III)	also measured
Cc1cccc2c1CN1CC(=O)NC1=N2.Cl [BL-3459, 6-methyl-1,2,3,5-tetrahydroimidazo[2,1-b]quinazolin-2-one hydrochloride]	5 µM	0.76 µM	31%	54%	< 0.1 mg/mL	< 0.01 mg/mL	18%	23%	20%	28%	17%	26%	18%	34%	19%	35%	1.7 µM				aggregation inhibitory activity in ADP- or collagen-induced aggregation (in words) (platelet aggregation [2]): widely varied depending on the individual animal and, therefore, cannot be regarded significant; Reduction in Blood Pressure (circulatory system; 24 hr, *P<0.05): 12%
O=C1CN2Cc3c(ccc(Cl)c3Cl)N=C2N1 [BL-4162, 6,7-dichloro-1,2,3,5-tetrahydro[2,1-b]quinazolin-2-one]	0.8 µM	0.02 µM	8%	53%	< 0.01 mg/mL	< 0.01 mg/mL	28%	11%	37%	16%	31%	17%	31%	14%	31%	13%	1.2 µM	> 10 µM	3.9 µM	0.096 µM	aggregation inhibitory activity in ADP- or collagen-induced aggregation (in words) (platelet aggregation [2]): widely varied depending on the individual animal and, therefore, cannot be regarded significant; IC50 (human platelet PDE II): 3.3 µM; Increase in Heart Beat (circulatory system; 4 hr, **P<0.01): 37%; Reduction in Blood Pressure (circulatory system; 4 hr, **P<0.01): 14%
Cl.Cl.O.O=C1CN2Cc3cc(N4CCCCC4)c(Cl)cc3N=C2N1 [Example 16, 8-Chloro-7-piperidino-1,2,3,5-tetrahydroimidazo[2,1-b] quinazolin-2-one dihydrochloride monohydrate]	0.4 µM	0.46 µM	34%	76%													12.5 µM	> 10 µM	30 µM	0.095 µM	Inhibition on platelet aggregation induced by 3LL ([5]; sample concn. 1 μM): +; Inhibition on platelet aggregation induced by 3LL ([5]; sample concn. 3 μM): -; Inhibition on platelet aggregation induced by 3LL ([5]; sample concn. 10 μM): -; IC50 Ratio (PDE II) Heart/Platelet (human platelet PDE III): 11.6; selectivity to platelet PDE (in words) (human platelet PDE III; Table 6): high selectivity to platelet PDE; IC50 (human platelet PDE III): 0.0082 µM; IC50 (human platelet PDE II): > 30 µM; water-solubility (in words) [3]: low water-solubility; Inhibition on platelet aggregation induced by B16 ([6]; sample concn. 0.3 μM): ±; Inhibition on platelet aggregation induced by B16 ([6]; sample concn. 1 μM): -
CN(C)c1ccc2c(c1)CN1CC(=O)NC1=N2 [Example 21, 7-dimethylamino-1,2,3,5-tetrahydroimidazo[2,1-b]quinazolin-2-one]	5.4 µM	1.4 µM	29%	48%	> 100 mg/mL	0.18 mg/mL (≈ 782 µM)	19%	1.0%	22%	5.0%	20%	5.0%	23%	5.0%	15%	1.0%	7.2 µM	> 100 µM	70 µM	1.4 µM	platelet aggregation inhibitory activity (in words) [1]: strong platelet aggregation inhibitory activity; IC50 Ratio (PDE II) Heart/Platelet (human platelet PDE III; Heart/Platelet): 1.1; IC50 (human platelet PDE III): 1.3 µM; activity on heart PDE (in words) (human heart PDE III; Table 6): strong activity on heart PDE; IC50 (human platelet PDE II): 57 µM; water-solubility (in words) [3]: water-soluble; inhibition at 0.067 mg/kg (platelet aggregation [7]; ADP, *P<0.05, read-out: Percent Inhibition of platelet aggregation, ADP): 23%; inhibition at 0.067 mg/kg (platelet aggregation [7]; collagen, *P<0.05, read-out: Percent Inhibition of platelet aggregation, Collagen): 71%
